Reference: ChEMBL document CHEMBL1909046, “DrugMatrix in vitro pharmacology data”

Key:
[1] = molecular target: T1, Alpha-1D adrenergic receptor (Homo sapiens, UniProt P25100); assay type: cell membranes, HEK293, Membrane; also: in other assays of this panel Not Active means under 50% inhibition at 10 µM
T1 sequence (P25100 whole entry): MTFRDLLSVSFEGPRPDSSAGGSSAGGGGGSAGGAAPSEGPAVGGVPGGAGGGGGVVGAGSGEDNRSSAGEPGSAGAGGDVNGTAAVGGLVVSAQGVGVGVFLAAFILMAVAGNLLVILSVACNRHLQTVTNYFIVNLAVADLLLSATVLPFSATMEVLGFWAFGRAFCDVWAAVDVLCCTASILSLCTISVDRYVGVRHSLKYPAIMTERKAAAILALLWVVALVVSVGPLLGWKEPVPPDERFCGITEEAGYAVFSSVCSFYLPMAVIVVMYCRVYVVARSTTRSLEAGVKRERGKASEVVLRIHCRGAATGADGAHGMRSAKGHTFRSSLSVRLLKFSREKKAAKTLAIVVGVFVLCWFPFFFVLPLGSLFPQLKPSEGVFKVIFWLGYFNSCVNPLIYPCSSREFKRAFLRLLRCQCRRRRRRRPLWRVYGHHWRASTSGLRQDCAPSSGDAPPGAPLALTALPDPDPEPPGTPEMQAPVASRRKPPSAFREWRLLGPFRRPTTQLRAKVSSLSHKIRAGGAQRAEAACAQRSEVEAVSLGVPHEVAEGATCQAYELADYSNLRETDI

[2] = molecular target: Vascular endothelial growth factor receptor 1 (Homo sapiens, UniProt P17948); assay: biochemical; assay type: cell-based, HUVEC; settings: huvec; also: in other assays of this panel Not Active means under 50% inhibition at 10 µM
Vascular endothelial growth factor receptor 1, sequence (P17948 whole entry): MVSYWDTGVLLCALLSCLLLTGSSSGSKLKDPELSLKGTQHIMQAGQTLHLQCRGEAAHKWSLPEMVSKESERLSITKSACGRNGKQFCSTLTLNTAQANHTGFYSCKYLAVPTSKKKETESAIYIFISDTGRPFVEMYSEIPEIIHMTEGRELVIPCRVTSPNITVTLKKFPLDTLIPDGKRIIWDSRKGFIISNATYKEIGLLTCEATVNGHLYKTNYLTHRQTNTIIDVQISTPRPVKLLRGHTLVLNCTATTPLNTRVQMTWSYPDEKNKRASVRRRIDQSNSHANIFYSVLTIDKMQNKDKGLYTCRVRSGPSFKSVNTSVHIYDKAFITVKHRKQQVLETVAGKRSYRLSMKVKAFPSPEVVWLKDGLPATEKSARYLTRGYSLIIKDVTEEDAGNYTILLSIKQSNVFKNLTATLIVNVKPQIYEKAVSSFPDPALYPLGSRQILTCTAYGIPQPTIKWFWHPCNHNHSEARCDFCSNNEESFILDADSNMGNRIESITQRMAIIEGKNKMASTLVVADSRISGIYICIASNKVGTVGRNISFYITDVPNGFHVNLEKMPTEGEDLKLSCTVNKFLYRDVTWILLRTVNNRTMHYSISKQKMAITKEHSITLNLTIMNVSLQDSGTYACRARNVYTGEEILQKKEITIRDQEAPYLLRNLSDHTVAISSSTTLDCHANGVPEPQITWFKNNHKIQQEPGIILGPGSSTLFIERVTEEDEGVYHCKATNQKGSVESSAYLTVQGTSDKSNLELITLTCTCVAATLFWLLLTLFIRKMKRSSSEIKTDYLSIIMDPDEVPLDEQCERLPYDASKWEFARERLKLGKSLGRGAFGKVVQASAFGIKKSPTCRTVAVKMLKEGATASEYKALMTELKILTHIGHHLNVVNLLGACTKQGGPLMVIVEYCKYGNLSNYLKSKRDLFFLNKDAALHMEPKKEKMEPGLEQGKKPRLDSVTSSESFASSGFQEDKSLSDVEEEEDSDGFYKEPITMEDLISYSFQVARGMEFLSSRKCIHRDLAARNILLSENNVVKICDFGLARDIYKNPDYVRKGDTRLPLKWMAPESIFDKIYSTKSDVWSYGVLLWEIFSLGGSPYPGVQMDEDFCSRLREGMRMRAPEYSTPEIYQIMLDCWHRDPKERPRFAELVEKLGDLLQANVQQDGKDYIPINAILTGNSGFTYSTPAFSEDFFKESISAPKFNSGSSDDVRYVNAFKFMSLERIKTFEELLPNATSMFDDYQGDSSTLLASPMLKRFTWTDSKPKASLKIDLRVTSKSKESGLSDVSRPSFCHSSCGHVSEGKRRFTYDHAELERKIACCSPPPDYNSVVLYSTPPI

[3] = DRUGMATRIX: Glutamate, NMDA, Agonism radioligand binding (ligand: [3H] CGP-39653); assay type: cell membranes, Rattus norvegicus, Wistar, Cerebral cortex, Membrane; settings: Not Active = under 50% inhibition at 10 µM
[4] = molecular target: T2, Cathepsin G (Homo sapiens, UniProt P08311); assay type: tissue-based; settings: neutrophil;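 also: inhibition of Cathepsin G enzyme activity, tested on an AMC-conjugated peptide substrate; in other assays of this panel Not Active means under 50% inhibition at 10 µM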
T2 sequence (P08311 whole entry): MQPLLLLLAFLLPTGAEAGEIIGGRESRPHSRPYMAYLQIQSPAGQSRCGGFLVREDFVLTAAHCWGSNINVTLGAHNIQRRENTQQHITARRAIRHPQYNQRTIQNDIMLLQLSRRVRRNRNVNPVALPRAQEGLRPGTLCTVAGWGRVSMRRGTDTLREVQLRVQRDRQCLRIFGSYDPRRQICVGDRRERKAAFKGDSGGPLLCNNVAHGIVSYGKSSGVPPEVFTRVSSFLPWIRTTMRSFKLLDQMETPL

[5] = molecular target: Tyrosine-protein kinase Fyn (Homo sapiens, UniProt P06241); assay: biochemical; assay type: cell-based, Insect cells; settings: insect cells;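 also: enzymatic inhibition of Fyn kinase activity measured with Poly(Glu:Tyr) as the phosphorylation substrate; in other assays of this panel Not Active means under 50% inhibition at 10 µM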
Tyrosine-protein kinase Fyn, sequence (P06241 whole entry): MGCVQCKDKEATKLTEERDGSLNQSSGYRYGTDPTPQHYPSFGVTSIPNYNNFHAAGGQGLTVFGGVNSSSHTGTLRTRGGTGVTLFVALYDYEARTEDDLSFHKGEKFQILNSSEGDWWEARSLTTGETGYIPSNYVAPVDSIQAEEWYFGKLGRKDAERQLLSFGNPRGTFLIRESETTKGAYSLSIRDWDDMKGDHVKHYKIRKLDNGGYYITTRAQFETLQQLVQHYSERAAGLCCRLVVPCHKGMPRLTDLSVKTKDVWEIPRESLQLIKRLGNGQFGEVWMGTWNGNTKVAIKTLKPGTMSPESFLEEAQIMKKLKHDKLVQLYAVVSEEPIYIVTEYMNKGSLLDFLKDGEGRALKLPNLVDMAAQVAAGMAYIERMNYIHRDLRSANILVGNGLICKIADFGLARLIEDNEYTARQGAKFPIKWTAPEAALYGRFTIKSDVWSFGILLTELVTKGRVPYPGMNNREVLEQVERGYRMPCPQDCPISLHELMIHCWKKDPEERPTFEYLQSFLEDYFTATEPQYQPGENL

[6] = molecular target: Cytochrome P450 2C19 (Homo sapiens, UniProt P33261); settings: bti-tn-5b1-4; also: in other assays of this panel Not Active means under 50% inhibition at 10 µM
Cytochrome P450 2C19, sequence (P33261 whole entry): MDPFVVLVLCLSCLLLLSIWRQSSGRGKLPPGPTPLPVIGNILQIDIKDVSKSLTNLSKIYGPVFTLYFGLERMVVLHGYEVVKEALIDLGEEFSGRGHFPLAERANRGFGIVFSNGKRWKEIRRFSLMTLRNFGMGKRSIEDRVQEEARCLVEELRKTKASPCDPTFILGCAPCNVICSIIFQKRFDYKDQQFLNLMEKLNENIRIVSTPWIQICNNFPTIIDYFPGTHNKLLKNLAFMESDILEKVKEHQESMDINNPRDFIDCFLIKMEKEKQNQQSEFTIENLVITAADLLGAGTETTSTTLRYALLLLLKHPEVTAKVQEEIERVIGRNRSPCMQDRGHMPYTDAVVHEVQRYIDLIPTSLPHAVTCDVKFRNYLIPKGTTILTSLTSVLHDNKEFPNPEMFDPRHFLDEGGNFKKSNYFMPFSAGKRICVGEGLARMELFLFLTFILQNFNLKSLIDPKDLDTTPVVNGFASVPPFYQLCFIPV

Row | Molecule | IC50 ([1]; hek293) | IC50 [2] | IC50 [3] | Ki [3] | IC50 [4] | IC50 [5] | IC50 [6] | Ki [6] | Ki ([1]; hek293) | Ki [2] | Ki [4] | Ki [5] | IC50 ([1]; read-out: IC50) [µM] | Ki ([1]; read-out: Ki) [µM] | IC50 ([5]; read-out: IC50) [µM]
1 | CC(C(=O)O)c1ccc2oc(-c3ccc(Cl)cc3)nc2c1 (stereo unspecified) [BENOXAPROFEN] | Not Active | Not Active | Not Active | Not Active | Not Active | Not Active | Not Active | Not Active | – | – | – | – | – | – | –
2 | GADOPENTETATE DIMEGLUMINE | Not Active | Not Active | Not Active | Not Active | Not Active | Not Active | Not Active | Not Active | Not Active | Not Active | Not Active | Not Active | – | – | –
3 | Nc1ccc2c3c(cccc13)C(=O)NC2=O | Not Active | Not Active | Not Active | Not Active | Not Active | Not Active | Not Active | Not Active | – | – | – | – | – | – | –
4 | C[n+]1ccccc1/C=N/O.[Cl-] [PRALIDOXIME CHLORIDE] | Not Active | Not Active | Not Active | Not Active | Not Active | Not Active | Not Active | Not Active | – | – | – | – | – | – | –
5 | NNc1nncc2ccccc12 [HYDRALAZINE] | Not Active | Not Active | Not Active | Not Active | Not Active | Not Active | Not Active | Not Active | – | – | – | – | – | – | –
6 | O=c1cnn([C@@H]2O[C@H](CO)[C@@H](O)[C@H]2O)c(=O)[nH]1 [6-AZAURIDINE] | Not Active | Not Active | Not Active | Not Active | Not Active | Not Active | Not Active | Not Active | – | – | – | – | – | – | –
7 | Cn1c(=O)c2c(ncn2CC(O)CO)n(C)c1=O (stereo unspecified) [DYPHYLLINE] | Not Active | Not Active | Not Active | Not Active | Not Active | Not Active | Not Active | Not Active | – | – | – | – | – | – | –
8 | O=c1cc(N2CCOCC2)oc2c(-c3ccccc3)cccc12 [LY-294002] | Not Active | Not Active | Not Active | Not Active | Not Active | Not Active | Not Active | Not Active | – | – | – | – | – | – | –
9 | C[C@@H]1C[C@H]2[C@@H]3CCC4=CC(=O)C=C[C@]4(C)[C@@]3(F)[C@@H](O)C[C@]2(C)[C@H]1C(=O)CO [DESOXIMETASONE] | Not Active | Not Active | Not Active | Not Active | Not Active | Not Active | Not Active | Not Active | – | – | – | – | – | – | –
10 | CCn1cc(C(=O)O)c(=O)c2cnc(N3CCCC3)nc21 [PIROMIDIC ACID] | Not Active | Not Active | Not Active | Not Active | Not Active | Not Active | Not Active | Not Active | – | – | – | – | – | – | –
11 | CC1(C)S[C@@H]2[C@H](NC(=O)[C@H](N)c3ccccc3)C(=O)N2[C@H]1C(=O)O [AMPICILLIN] | Not Active | Not Active | Not Active | Not Active | Not Active | Not Active | Not Active | Not Active | – | – | – | – | – | – | –
12 | CCN(CC)CCOCCC1=CCC2CC1C2(C)C (stereo unspecified) [MYRTECAINE] | Not Active | Not Active | Not Active | Not Active | Not Active | Not Active | Not Active | Not Active | – | – | – | – | – | – | –
13 | COC(=O)Nc1nc2ccc([S+]([O-])c3ccccc3)cc2[nH]1 (stereo unspecified) [OXFENDAZOLE] | Not Active | Not Active | Not Active | Not Active | Not Active | Not Active | Not Active | Not Active | – | – | – | – | – | – | –
14 | C[C@]12C=CC(=O)C=C1CC[C@@H]1[C@@H]2[C@@H](O)C[C@@]2(C)[C@H]1CC[C@]2(O)C(=O)CO [PREDNISOLONE] | Not Active | Not Active | Not Active | Not Active | Not Active | Not Active | Not Active | Not Active | – | – | – | – | – | – | –
15 | O=C1O[C@H]([C@@H](O)CO)C(O)=C1O [ASCORBIC ACID] | Not Active | Not Active | Not Active | Not Active | Not Active | Not Active | Not Active | Not Active | – | – | – | – | – | – | –
16 | COc1ccc(C2C(=O)c3ccccc3C2=O)cc1 [ANISINDIONE] | Not Active | Not Active | Not Active | Not Active | Not Active | Not Active | Not Active | Not Active | – | – | – | – | – | – | –
17 | Brc1c(NC2=NCCN2)ccc2nccnc12 [BRIMONIDINE] | – | Not Active | Not Active | Not Active | Not Active | Not Active | Not Active | Not Active | – | – | – | – | 1.72 | 0.846 | –
18 | CCC1(C)CC(=O)NC1=O (stereo unspecified) [ETHOSUXIMIDE] | Not Active | Not Active | Not Active | Not Active | Not Active | Not Active | Not Active | Not Active | – | – | – | – | – | – | –
19 | GRAMICIDIN | Not Active | Not Active | Not Active | Not Active | Not Active | – | Not Active | Not Active | Not Active | Not Active | Not Active | – | – | – | 3.33
20 | OC(CCCN1CCCCC1)(c1ccccc1)c1ccccc1 [DIPHENIDOL] | Not Active | Not Active | Not Active | Not Active | Not Active | Not Active | Not Active | Not Active | – | – | – | – | – | – | –
21 | CCC(=O)O[C@]1(C(=O)CCl)[C@@H](C)C[C@H]2[C@@H]3CCC4=CC(=O)C=C[C@]4(C)[C@@]3(F)[C@@H](O)C[C@@]21C [CLOBETASOL PROPIONATE] | Not Active | Not Active | Not Active | Not Active | Not Active | Not Active | Not Active | Not Active | – | – | – | – | – | – | –
22 | CCCOc1ccc(C(=O)OCCN(CC)CC)cc1N [PROPARACAINE] | Not Active | Not Active | Not Active | Not Active | Not Active | Not Active | Not Active | Not Active | – | – | – | – | – | – | –
23 | CC(=O)[C@H]1[C@H](C#N)C[C@H]2[C@@H]3CC=C4C[C@@H](O)CC[C@]4(C)[C@H]3CC[C@@]21C [PREGNENOLONE CARBONITRILE] | Not Active | Not Active | Not Active | Not Active | Not Active | Not Active | Not Active | Not Active | – | – | – | – | – | – | –
24 | CN(C)CC[C@@H](c1ccc(Cl)cc1)c1ccccn1 [DEXCHLORPHENIRAMINE] | – | Not Active | Not Active | Not Active | Not Active | Not Active | Not Active | Not Active | – | – | – | – | 33.7 | 16.6 | –
